Source: US20050112573A1, “Method of detecting toxic substance” (priority 2001, published 2005)

Tested on: yeast genes (level of expressed mRNA)
Assay: DNA chip analysis of expressed mRNA of yeast genes after 2 h culture with a toxic chemical substance
Format: cell-based, Saccharomyces cerevisiae S288C
Conditions: for The level of expressed mRNA in the presence of chemical substance/ (ratio to absence): transport facilitation protein gene; for The level of expressed mRNA in the presence of chemical substance/: ratio to no chemical; for The level of expressed mRNA in the presence of chemical substance/ (ratio to absence of chemical substance): stress protein genes, DNA chip
Outline: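 S. cerevisiae S288C in YPD at 25 °C was exposed at log phase for 2 h to a growth-inhibiting, non-lethal concentration of the chemical. Poly(A) mRNA was reverse-transcribed with Cy3- or Cy5-dUTP and hybridized to a whole-genome yeast DNA chip (65 °C, >12 h). Values are fluorescence ratios versus untreated cells.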

sodium dodecylbenzosulfonate [(17)]
3.0: The level of expressed mRNA in the presence of chemical substance/The level of expressed mRNA in the absence of chemical substance (yeast gene YER130C)
1.6: The level of expressed mRNA in the presence of chemical substance/in the absence of chemical substance (yeast gene YDR497C) | The level of expressed mRNA in the presence of chemical substance/ (ratio to absence) (yeast gene YDR497C) | The level of expressed mRNA in the presence of chemical substance/ (in its absence), gene YER015W (yeast gene YER015W, ratio of DNA chip fluorescence intensity to that without chemical substance) | The level of expressed mRNA in the presence of chemical substance/in the absence of chemical substance (yeast gene YFL057C) | The level of expressed mRNA in the presence of chemical substance/in the absence of chemical substance (yeast gene YGR043C)
1.1: The level of expressed mRNA in the presence of chemical substance/in the absence of chemical substance (yeast gene YDR313C) | The level of expressed mRNA in the presence of chemical substance/ (ratio to absence) (yeast gene YDR343C) | The level of expressed mRNA in the presence of chemical substance/in the absence of chemical substance (yeast gene YDR368W) | The level of expressed mRNA in the presence of chemical substance/ (yeast gene YDR494W) | The level of expressed mRNA in the presence of chemical substance/The level of expressed mRNA in the absence of chemical substance (yeast gene YDR510W) | The level of expressed mRNA in the presence of chemical substance/in the absence of chemical substance (yeast gene YDR516C) | The level of expressed mRNA in the presence of chemical substance/ (yeast gene YER045C) | The level of expressed mRNA in the presence of chemical substance/ (ratio to absence of chemical substance) (yeast gene YER057C) | The level of expressed mRNA in the presence of chemical substance/The level of expressed mRNA in the absence of chemical substance (yeast gene YER107C) | The level of expressed mRNA in the presence of chemical substance/in the absence of chemical substance (yeast gene YER178W) | The level of expressed mRNA in the presence of chemical substance/ (ratio to absence) (yeast gene YFL041W) | The level of expressed mRNA in the presence of chemical substance/ (ratio to absence) (yeast gene YGL008C) | The level of expressed mRNA in the presence of chemical substance/in the absence of chemical substance (yeast gene YGL062W) | The level of expressed mRNA in the presence of chemical substance/ (yeast gene YGL098W) | The level of expressed mRNA in the presence of chemical substance/ (yeast gene YGL193C) | The level of expressed mRNA in the presence of chemical substance/The level of expressed mRNA in the absence of chemical substance (yeast gene YGL229C)
0.9: The level of expressed mRNA in the presence of chemical substance/ (yeast gene YER124C) | The level of expressed mRNA in the presence of chemical substance/ (yeast gene YFR017C) | The level of expressed mRNA in the presence of chemical substance/ (ratio to absence) (yeast gene YFR045W) | The level of expressed mRNA in the presence of chemical substance/ (in its absence), gene YGL035C (yeast gene YGL035C, ratio of DNA chip fluorescence intensity to that without chemical substance) | The level of expressed mRNA in the presence of chemical substance/ (yeast gene YGL067W) | The level of expressed mRNA in the presence of chemical substance/ (yeast gene YGL114W) | The level of expressed mRNA in the presence of chemical substance/ (ratio to absence), gene YGL187C (yeast gene YGL187C, mitochondria-located protein genes, 2 h culture with chemical) | The level of expressed mRNA in the presence of chemical substance/ (yeast gene YGL204C) | The level of expressed mRNA in the presence of chemical substance/ (yeast gene YGL259W) | The level of expressed mRNA in the presence of chemical substance/ (yeast gene YGR011W) | The level of expressed mRNA in the presence of chemical substance/ in its absence, gene YGR062C (yeast gene YGR062C, energy system protein genes, 2 h culture with the chemical, ratio to control without chemical) | The level of expressed mRNA in the presence of chemical substance/ (ratio to absence), gene YGR062C (yeast gene YGR062C, mitochondria-located protein genes, 2 h culture with chemical)
1.3: The level of expressed mRNA in the presence of chemical substance/ (yeast gene YDR512C) | The level of expressed mRNA in the presence of chemical substance/ (ratio to absence) (yeast gene YGL104C) | The level of expressed mRNA in the presence of chemical substance/ (yeast gene YGR042W)
2.1: The level of expressed mRNA in the presence of chemical substance/ (yeast gene YGL117W)
3.9: The level of expressed mRNA in the presence of chemical substance/ (in its absence), gene YGL205W (yeast gene YGL205W, ratio of DNA chip fluorescence intensity to that without chemical substance)
0.8: The level of expressed mRNA in the presence of chemical substance/ (yeast gene YEL072W) | The level of expressed mRNA in the presence of chemical substance/ (in its absence), gene YGL115W (yeast gene YGL115W, ratio of DNA chip fluorescence intensity to that without chemical substance) | The level of expressed mRNA in the presence of chemical substance/ (ratio to absence of chemical substance) (yeast gene YGL115W) | The level of expressed mRNA in the presence of chemical substance/The level of expressed mRNA in the absence of chemical substance (yeast gene YGL158W) | The level of expressed mRNA in the presence of chemical substance/ (in its absence), gene YGR096W (yeast gene YGR096W, ratio of DNA chip fluorescence intensity to that without chemical substance)
1.4: The level of expressed mRNA in the presence of chemical substance/ (yeast gene YDR350C) | The level of expressed mRNA in the presence of chemical substance/ (ratio to absence) (yeast gene YFL055W) | The level of expressed mRNA in the presence of chemical substance/in the absence of chemical substance (yeast gene YFR053C) | The level of expressed mRNA in the presence of chemical substance/in the absence of chemical substance (yeast gene YGL156W) | The level of expressed mRNA in the presence of chemical substance/ (ratio to absence) (yeast gene YGL167C)
1.8: The level of expressed mRNA in the presence of chemical substance/in the absence of chemical substance (yeast gene YGL157W)
1.0: The level of expressed mRNA in the presence of chemical substance/ (ratio to absence) (yeast gene YDR342C) | The level of expressed mRNA in the presence of chemical substance/ (yeast gene YDR374C) | The level of expressed mRNA in the presence of chemical substance/ (ratio to absence) (yeast gene YEL027W) | The level of expressed mRNA in the presence of chemical substance/The level of expressed mRNA in the absence of chemical substance (yeast gene YEL066W) | The level of expressed mRNA in the presence of chemical substance/in the absence of chemical substance (yeast gene YER096W) | The level of expressed mRNA in the presence of chemical substance/ (ratio to absence) (yeast gene YER119C) | The level of expressed mRNA in the presence of chemical substance/in the absence of chemical substance (yeast gene YFL030W) | The level of expressed mRNA in the presence of chemical substance/in the absence of chemical substance (yeast gene YFL056C) | The level of expressed mRNA in the presence of chemical substance/ (yeast gene YGL146C) | The level of expressed mRNA in the presence of chemical substance/in the absence of chemical substance (yeast gene YGL184C) | The level of expressed mRNA in the presence of chemical substance/ (yeast gene YGR066C)
0.6: The level of expressed mRNA in the presence of chemical substance/ (ratio to absence) (yeast gene YGL255W)
1.9: The level of expressed mRNA in the presence of chemical substance/The level of expressed mRNA in the absence of chemical substance (yeast gene YDR358W)
0.7: The level of expressed mRNA in the presence of chemical substance/The level of expressed mRNA in the absence of chemical substance (yeast gene YDR432W) | The level of expressed mRNA in the presence of chemical substance/ (ratio to absence of chemical substance) (yeast gene YEL039C) | The level of expressed mRNA in the presence of chemical substance/The level of expressed mRNA in the absence of chemical substance (yeast gene YEL042W) | The level of expressed mRNA in the presence of chemical substance/ (ratio to absence) (yeast gene YEL065W) | The level of expressed mRNA in the presence of chemical substance/ (yeast gene YER181C) | The level of expressed mRNA in the presence of chemical substance/ (ratio to absence) (yeast gene YGR055W) | The level of expressed mRNA in the presence of chemical substance/ (ratio to absence) (yeast gene YGR065C)
1.7: The level of expressed mRNA in the presence of chemical substance/The level of expressed mRNA in the absence of chemical substance (yeast gene YER039C) | The level of expressed mRNA in the presence of chemical substance/ (ratio to absence) (yeast gene YFL054C) | The level of expressed mRNA in the presence of chemical substance/ (yeast gene YFR042W)
1.5: The level of expressed mRNA in the presence of chemical substance/ (yeast gene YDR531W) | The level of expressed mRNA in the presence of chemical substance/ (yeast gene YEL041W) | The level of expressed mRNA in the presence of chemical substance/in the absence of chemical substance (yeast gene YFL014W) | The level of expressed mRNA in the presence of chemical substance/The level of expressed mRNA in the absence of chemical substance (yeast gene YFL043C) | The level of expressed mRNA in the presence of chemical substance/in the absence of chemical substance (yeast gene YFR047C) | The level of expressed mRNA in the presence of chemical substance/ (yeast gene YGL046W) | The level of expressed mRNA in the presence of chemical substance/ (yeast gene YGR053C)
3.2: The level of expressed mRNA in the presence of chemical substance/in the absence of chemical substance (yeast gene YGR032W)
1.2: The level of expressed mRNA in the presence of chemical substance/The level of expressed mRNA in the absence of chemical substance (yeast gene YDR315C) | The level of expressed mRNA in the presence of chemical substance/ (ratio to absence), gene YDR377W (yeast gene YDR377W, mitochondria-located protein genes, 2 h culture with chemical) | The level of expressed mRNA in the presence of chemical substance/ (in its absence), gene YDR387C (yeast gene YDR387C, ratio of DNA chip fluorescence intensity to that without chemical substance) | The level of expressed mRNA in the presence of chemical substance/The level of expressed mRNA in the absence of chemical substance (yeast gene YDR388W) | The level of expressed mRNA in the presence of chemical substance/The level of expressed mRNA in the absence of chemical substance (yeast gene YDR481C) | The level of expressed mRNA in the presence of chemical substance/in the absence of chemical substance (yeast gene YER053C) | The level of expressed mRNA in the presence of chemical substance/ (ratio to absence) (yeast gene YER053C) | The level of expressed mRNA in the presence of chemical substance/in the absence of chemical substance (yeast gene YER091C) | The level of expressed mRNA in the presence of chemical substance/The level of expressed mRNA in the absence of chemical substance (yeast gene YFL028C) | The level of expressed mRNA in the presence of chemical substance/in the absence of chemical substance (yeast gene YFL031W) | The level of expressed mRNA in the presence of chemical substance/in the absence of chemical substance (yeast gene YFL061W) | The level of expressed mRNA in the presence of chemical substance/ (yeast gene YFR046C) | The level of expressed mRNA in the presence of chemical substance/ (yeast gene YGL250W)
